Experimental findings from US20220117920A1, “N-Aryl Benzenesulfonamides as Protonophores for the Treatment of Cancers, Metabolic Diseases and Traumatic Brain Injury” (University of Kentucky Research Foundation, priority 2019, published 2022) are described below.

Series [1] relates to Wnt signaling. As to the kind of experiment: Wnt reporter assay, stable HEK293T cell line containing TOPFlash reporter, LiCl-activated. The series is classed as cell-based, human. The note with it: 3 μM. From the text: To identify novel Wnt regulators by high throughput screening, a stable HEK293T cell line containing the TOPFlash reporter was established. To identify Wnt inhibitors that targeted molecular events downstream of β-catenin, we treated these cells with lithium chloride to inhibit GSK3 and to stabilize β-catenin. […] We also validated the results by transient transfection of Super 8× TOPFlash or 8× FOPFlash into HEK293T cells. […] Since the results from the stable and transient transfection are compatible, we used stable cell lines for all of the other experiments.
Reporter assay. Wnt reporter assay and cell staining assay have been described previously. We subcloned Super 8×TOPFlash (provided by Professor Randall Moon, University of Washington) into the pGL4.83 [hRlucP/Puro] Vector and transfected it into HEK293T cells. A stable HEK293T cell line containing the TOPFlash reporter was established using puromycin selection. To screen Wnt inhibitors that block the downstream signaling transduction pathway of β-catenin, we treated the reporter cells with 25 mM LiCl to stabilize β-catenin and activate Wnt signaling. The potential Wnt inhibitors identified from screening were validated by transfecting TOPFlash or FOPFlash plus control renilla reporters into HEK293T cells, and then treating the cells with DMSO or testing compounds in DMSO solution. The Wnt signaling was activated by LiCl or Wnt3A treatment.

The test system of series [2] is Huh7 cells. The experiment in a line: Cyto-ID autophagy detection assay in Huh7 cells. Type of series: cell-based, human. The note with it: Huh7, 40 h, ±50 μM CQ. Here is the method:
Autophagy responses were monitored with the Cyto-ID autophagy detection reagent 2.0 (Enzo Life Sciences, USA) according to the manufacturer's instructions. Huh7 and PLC/PRF/5 cells were seeded in 12-well plates and treated the following day with drugs or DMSO vehicle control at the indicated concentrations. CQ was added to the corresponding wells to a final concentration of 50 μM 8 h prior harvesting. After 40 h of drug treatment, cells were collected and assessed for viability with Zombie Violet dye solution (BioLegend, USA) followed by Cyto-ID autophagy detection reagent staining. Flow cytometry analyses were performed in a BD LSRII at the Flow Cytometry and Cell Sorting Shared Resource Facility of the University of Kentucky Markey Cancer Center and data were analyzed with the FlowJo Software version 7.6.5 (Tree Star, USA). The autophagic flux was quantified by subtracting the Cyto-ID MFI value of the sample without CQ from the Cyto-ID MFI value of the sample with CQ for each condition according to the formula: […]

Series [3] is described as follows: Gross-toxicity assay in mice. The series is classed as in vivo. The note with it: intraperitoneal injections up to 15 mg/kg for 5-6 weeks. As for the experimental part:
FIGS. 20A-D show graphs and images illustrating FH535 effect in vivo. (A) Mice body weight after FH535 treatment. C57BL/6 mice (n=5) were treated by intraperitoneal injection with 15 mg/Kg of FH535 or DMSO vehicle control every 4 days for 6 weeks. Mice were monitored before injections for signs of body weight loss, impaired mobility, labored breathing and body score based on the Ullman-Culleré MH, Foltz CJ method. (B-D) FH535 reduces tumor growth in vivo in a xenograft tumor model. Huh7 cell were injected subcutaneously on the right flank of athymic nude mice. FH535 (15 mg/Kg) or vehicle (DMSO) were administrated by intraperitoneal injection every other day when tumor size reached 100 mm^3. (B) Tumor growth was monitored every other day until day 10 of starting treatments when mice were euthanized according to the AVMA guidelines, *p<0.05 (n=5, each group); (C) Tumor weight of excised tumors after 10 day treatment with FH535 reduced the tumor weight in 42±8% compared to vehicle treatment, **p<0.001 (n=4, each group). (D) H&E and ki67 stainings from one representative tumor of each group treatment. Pictures were taken at 400× magnification.
To validate further the in vivo anti-tumor effect of FH535, we performed a gross-toxicity assay in mice with FH535 doses ranging from 0 to 30 mg/kg. […] Next, we evaluated the in vivo anti-tumor activity of FH535 in a Huh7 tumor xenograft model. […]

Turning to `Cc1cc([N+](=O)[O-])ccc1NS(=O)(=O)c1cc(Cl)ccc1Cl` [FH535, 2,5-dichloro-N-(2-methyl-4-nitrophenyl)benzenesulfonamide], the “inhibition of Wnt signaling” value in series [1] is reported as “inhibited Wnt signaling”. Besides, the “autophagic flux (Cyto-ID)” value in series [2] is “reduced accumulation of autophagic vesicles”. Further, the “signs of body distress or toxicity (weight loss, ambulatory ability, respiration, dehydration)” value in series [3] is reported as “did not induce major signs of body distress or toxicity”.
